How the values were obtained:
Aβ1-42 = Aβ1-42 (Homo sapiens, UniProt P05067); test: Self-induced Aβ1-42 aggregation, thioflavin T fluorescence; type: biochemical; design: final concentrations of 20 μM of Aβ1-42 and 100 μM of test compound; purchased Beyotime Institute of Biotechnology; details: read-out: Inhibition of Self-Induced Aβ Aggregation (%)
Protocol: The inhibitory effect of compounds on Aβ42 was determined by Thioflavin T (ThT) fluorescence assay. In short, the dilution of Aβ42 solution (Beyotime Biotechnology, Hang Zhou, China) and test compounds was carried out with phosphate buffer (50 mM, pH 7.4) to obtain final concentrations of 20 μM of Aβ1-42 and 100 μM of test compound, such as curcumin (20 μM). The mixture was incubated in 96-well plates at room temperature for 48 h in the dark. When the incubation was complete, the samples were diluted to 200 µL (final volume) with glycine–NaOH buffer (50 mM, pH 8.0) containing 5 μM ThT.

SY5Y cells = test: H2O2-induced intracellular ROS in SY5Y cells (DCFH-DA); type: cell-based; details: 100 μM, vs untreated control 100, H2O2 group 151.76
Protocol: A 2’, 7’-dichlorofluorescein diacetate (DCFH-DA, Sigma Aldrich) probe was applied to determine intracellular ROS production. It can penetrate cells and be rapidly oxidized by intracellular ROS to highly fluorescent 2′,7′-dichlorofluorescein (DCF). Intracellular fluorescence intensity is proportional to intracellular ROS levels. PC12 cells or SY5Y cells were seeded into a black 96-well plate at a density of 1.0 × 10^4 cells per well. After the cells were incubated overnight, the old medium was discarded. PC12 cells or SY5Y cells were cultured in a medium containing test compound 4h with or without various concentrations (1, 7.5, 15, 30, and 50 μM) for 6 h. […] Then, they were washed again with PBS, then DCFH-DA […] probe was added to each well and incubated at 37 °C for 1 h. After the cells were washed 3 times, the fluorescence intensity was measured in a Synergy HTX fluorescence microplate reader (λex = 485 nm, λem = 528 nm).

in vitro = in vitro ADME, SD rats; details: SD rat liver microsomes
Protocol: The incubation was terminated at different time points by adding 0.5 mL of ice-cold CH3CN. A parallel incubation was performed in the absence of a NADPH-regenerating system with microsomes as the negative control, and the reactions were terminated after the corresponding time incubation. After centrifugation with 12,500 rpm at 4 °C for 10 min, the supernatant was directly analyzed by the HPLC UV systems (Agilent HPLC 1200 instrument). Three independent experiments were performed in triplicate.

BuChE = molecular target: T1, BuChE (Equus caballus, UniProt P81908); test: Reversibility of BuChE inhibition, dilution method; type: biochemical; details: control 100
T1 construct: BuChE (from equine serum); purchased Sigma Chemical Company (St. Louis, MO, USA); host or cells: equine serum
T1 sequence (P81908 whole entry): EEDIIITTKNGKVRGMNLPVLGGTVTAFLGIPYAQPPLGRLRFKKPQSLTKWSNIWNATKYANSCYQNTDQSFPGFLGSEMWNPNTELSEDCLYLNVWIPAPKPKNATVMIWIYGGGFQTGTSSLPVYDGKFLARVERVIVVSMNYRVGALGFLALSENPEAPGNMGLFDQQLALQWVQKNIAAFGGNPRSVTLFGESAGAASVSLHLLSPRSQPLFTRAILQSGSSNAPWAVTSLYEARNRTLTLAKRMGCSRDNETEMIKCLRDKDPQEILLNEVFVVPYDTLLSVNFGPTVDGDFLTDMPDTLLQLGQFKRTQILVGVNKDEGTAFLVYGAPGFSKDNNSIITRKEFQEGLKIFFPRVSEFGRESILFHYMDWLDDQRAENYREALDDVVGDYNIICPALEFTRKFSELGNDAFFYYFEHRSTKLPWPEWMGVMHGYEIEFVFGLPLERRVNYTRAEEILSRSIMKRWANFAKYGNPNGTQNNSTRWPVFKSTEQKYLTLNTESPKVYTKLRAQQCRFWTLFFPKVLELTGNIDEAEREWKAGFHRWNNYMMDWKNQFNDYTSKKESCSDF
Protocol: The activities of the diluted residual enzymes were measured by Ellman’s modified method.
Reversibility studies were performed using a modified Ellman’s dilution method to measure the activity of the diluted residual enzyme. The AChE/BuChE (0.5 U/mL), ATCI/BTCI (0.01 M) and DTNB (0.01 M) were diluted with phosphate buffer pH = 7.4. […] At the end of incubation, 20 μL of DTNB solution was added to them. […] All the measured results are expressed as the mean ± SEM of the three independent experiments.

PC12 cells = test: Cytotoxicity in PC12 cells (MTT); type: cell-based
Protocol: The cytotoxicity and neuroprotective effects of the compounds on PC12 cells were evaluated by MTT assay. PC12 cells were seeded into a 96-well plate at a density of 5.0 × 10^3 cells per well. After the cells were incubated overnight, the old medium was discarded. The cells were incubated for another 24 h with fresh medium containing compounds at a concentration of 30 or 50 μM. A total of 20 μL of MTT solution (5 mg/mL, Sigma-Aldrich, Shanghai, China) was then added per well, and the cells were incubated for an additional 4 h. Afterwards, the supernatant was removed and 150 μL of DMSO was added to solubilize formazan crystals. The 96-well plate was placed on the shaker for 10–15 min, and then the absorbance at 492 nm was measured by a microplate reader.

H2O2-induced PC12 cells = test: Neuroprotection against H2O2-induced PC12 cell injury (MTT); type: cell-based; details: H2O2 250 μM, mean ± SEM
Protocol: Neuroprotection assay is similar to cytotoxicity. Oxidative cellular damage caused by H2O2 has become one of the important methods to study oxidative damage in neural cells. PC12 cells were seeded into a 96-well plate at a density of 5.0 × 10^3 cells per well. After the cells were incubated overnight, the old medium was discarded. […] After incubating overnight, 20 μL of MTT solution (5 mg/mL, Sigma-Aldrich) was added per well, and the cells were incubated for an additional 4 h. Afterwards, the supernatant was removed and 150 μL of DMSO was added. The 96-well plate was placed on the shaker for 10–15 min, and then the absorbance at 492 nm was measured by a microplate reader.

AChE (from electric eel) = molecular target: T2, AChE (from electric eel) (Electrophorus electricus, UniProt O42275); test: biochemical; details: AChE from electric eel; mean ± SD of three experiments; read-out: AChE Inhibition (IC50)
T2 construct: AChE (from electric eel); purchased Sigma Chemical Company (St. Louis, MO, USA)
T2 sequence (O42275 24-633): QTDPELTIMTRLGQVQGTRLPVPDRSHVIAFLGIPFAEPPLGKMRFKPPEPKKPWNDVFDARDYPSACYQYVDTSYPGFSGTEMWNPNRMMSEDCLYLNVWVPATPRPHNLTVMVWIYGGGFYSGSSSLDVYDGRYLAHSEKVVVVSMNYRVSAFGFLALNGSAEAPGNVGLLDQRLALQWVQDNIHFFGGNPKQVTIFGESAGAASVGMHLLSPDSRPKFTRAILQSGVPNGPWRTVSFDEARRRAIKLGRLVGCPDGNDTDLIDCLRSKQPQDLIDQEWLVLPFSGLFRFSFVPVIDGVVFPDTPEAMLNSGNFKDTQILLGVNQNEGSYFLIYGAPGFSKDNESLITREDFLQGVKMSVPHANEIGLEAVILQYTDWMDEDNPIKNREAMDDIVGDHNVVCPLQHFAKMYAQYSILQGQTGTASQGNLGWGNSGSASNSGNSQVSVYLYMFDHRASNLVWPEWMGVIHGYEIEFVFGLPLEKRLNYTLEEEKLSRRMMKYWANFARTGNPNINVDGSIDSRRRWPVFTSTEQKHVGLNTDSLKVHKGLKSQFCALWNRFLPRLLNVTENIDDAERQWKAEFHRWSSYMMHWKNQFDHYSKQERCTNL
Protocol: (§1) The ChE inhibitory activity of the test compounds was determined using the modified Ellman’s method. The compounds were dissolved in DMSO (10 mmol/L) and then diluted with PB (phosphate buffer) solution to attain a range of final concentrations. […] Briefly, 100 μL of different concentrations of the test or standard compounds and 100 μL of AChE/BuChE (0.5 U/mL) were added into 48-well plates and then co-incubated at 37 °C for 30 min. […] All concentrations mentioned are final.

[1] = molecular target: T3, BuChE (from equine serum) (Equus caballus, UniProt P81908); test: biochemical; details: mean ± SD of three experiments, read-out: BuChE Inhibition (IC50)
T3 construct: BuChE (from equine serum); purchased Sigma Chemical Company (St. Louis, MO, USA); host or cells: equine serum
T3 sequence (P81908 whole entry): as the sequence (P81908 whole entry) above
Protocol: as §1

[2] = test system: adjuvant-induced arthritis (AIA) rats; design: method as in PMID 36450214; details: cited from earlier work

Aβ1-42, sequence (P05067 672-713 limits assumed): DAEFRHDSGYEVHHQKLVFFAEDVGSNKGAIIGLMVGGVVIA

COc1cc(/C=C/C(=O)CC(=O)/C=C/c2ccc(O)c(OC)c2)ccc1O [Curcumin]
inhibition at 20 µM (Aβ1-42; curcumin 20 μM (text b32), ThT, 48 h): 55.4 ± 2.31%

Cc1c(C)c2c(c(C)c1O)CCC(C)(C(=O)O)O2 (centres unmarked) [Trolox]
ROS in SY5Y cells (%) (SY5Y cells): 126.06 ± 2.68%

C[C@]12CC[C@H]3[C@@H](CCC4=CC(=O)CC[C@@]43C)[C@@H]1CC[C@@H]2O [Testosterone, reference compound]
K (in vitro): 0.2593 ± 0.04409 min⁻¹ | T1/2 (in vitro): 2.4 ± 0.5 min

COc1cc2c(cc1OC)C(=O)C(CC1CCN(Cc3ccccc3)CC1)C2 (centres unmarked) [Donepezil, reference compound]
BuChE activity after dilution (reversibility) (BuChE; final inhibitor 0.1 × IC50 after 100-fold dilution): 94.1 ± 0.61 | BuChE activity after dilution (reversibility) (BuChE; final inhibitor 1 × IC50 after 100-fold dilution): 89.4 ± 1.49 | inhibition at 100 µM (Aβ1-42): 41.2 ± 1.87%

COc1ccc(S(=O)(=O)Nc2ccc3nc4n(c(=O)c3c2)-c2ccccc2C4=O)cc1 [8j]
Cell Viability (% of Control) (PC12 cells; compound 30 μM): 99.9 ± 1.5 % of Control | Cell Viability (% of Control) (PC12 cells; compound 50 μM): 98.9 ± 2.1 % of Control | H2O2-Induced PC12 Cell Viability (% of Control) (H2O2-induced PC12 cells; compound 10 μM): 38.02 ± 3.1 % of Control | H2O2-Induced PC12 Cell Viability (% of Control) (H2O2-induced PC12 cells; compound 30 μM): 47.36 ± 6.1 % of Control | IC50 (AChE (from electric eel)): > 50 µM | IC50 [1]: 10.2 ± 2.41 µM | Anti-inflammatory activity in the AIA model [2]: exhibited good anti-inflammatory activity in the AIA model

Source: paper PMC10610214 (Pharmaceuticals, 2023)
